Reference: US7094781B2, “Sulfamides and their use as endothelin receptor antagonists” (Actelion Pharmaceuticals Ltd., priority 2000, dated 2006)

Experiments:
[1] = target: T1, human recombinant ETB receptor (Homo sapiens, UniProt P24530); experiment: Inhibition of [125I]ET-1 binding to membranes from CHO cells carrying human ETB receptors
T1 construct: expressed in transfected cells; host or cells: CHO cells (microsomal membranes)
T1 sequence (P24530 27-442): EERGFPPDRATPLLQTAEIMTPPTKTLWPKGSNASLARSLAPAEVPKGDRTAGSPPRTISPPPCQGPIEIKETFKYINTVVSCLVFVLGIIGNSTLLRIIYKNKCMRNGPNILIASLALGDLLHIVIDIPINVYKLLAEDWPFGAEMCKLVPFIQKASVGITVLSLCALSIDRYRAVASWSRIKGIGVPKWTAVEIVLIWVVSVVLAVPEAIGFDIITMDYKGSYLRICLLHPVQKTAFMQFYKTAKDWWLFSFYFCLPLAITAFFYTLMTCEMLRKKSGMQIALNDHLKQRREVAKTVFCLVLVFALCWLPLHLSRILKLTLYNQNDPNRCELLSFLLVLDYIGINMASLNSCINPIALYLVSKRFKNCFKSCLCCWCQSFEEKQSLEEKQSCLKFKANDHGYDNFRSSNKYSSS

[2] = target: T2, human recombinant ETA receptor (Homo sapiens, UniProt P25101); experiment: Inhibition of [125I]ET-1 binding to membranes from CHO cells carrying human ETA receptors
T2 construct: expressed in transfected cells; host or cells: CHO cells (microsomal membranes)
T2 sequence (P25101 21-427): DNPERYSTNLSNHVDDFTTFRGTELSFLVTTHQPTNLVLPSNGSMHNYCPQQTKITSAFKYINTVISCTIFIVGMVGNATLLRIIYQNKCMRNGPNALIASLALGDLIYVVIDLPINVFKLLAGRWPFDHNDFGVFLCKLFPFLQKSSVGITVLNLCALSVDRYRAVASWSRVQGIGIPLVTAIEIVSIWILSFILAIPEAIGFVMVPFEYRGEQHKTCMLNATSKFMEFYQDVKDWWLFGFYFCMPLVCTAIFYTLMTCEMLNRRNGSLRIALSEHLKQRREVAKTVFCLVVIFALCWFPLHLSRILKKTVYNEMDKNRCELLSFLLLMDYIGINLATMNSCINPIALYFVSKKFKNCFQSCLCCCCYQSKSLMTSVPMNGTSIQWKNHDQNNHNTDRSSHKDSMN

| IC50 [1] | IC50 [2] | Structure (SMILES) |
| --- | --- | --- |
| > 1000 nM | 10 nM | COc1ccccc1Oc1c(NS(=O)(=O)NCc2cccs2)nc(-c2ccncc2)nc1OCCOc1ncc(Br)cn1 [Example 80] |
| 274 nM | 3.6 nM | COc1ccccc1Oc1c(NS(=O)(=O)NCc2cccs2)nc(-c2ccncc2)nc1OCCOC(=O)Nc1ccccn1 [Example 81] |
| 574 nM | 37 nM | COc1ccccc1Oc1c(NS(=O)(=O)NCc2ccccn2)nc(C2CC2)nc1OCCOc1ncc(Br)cn1 [Example 84] |
| 621 nM | 19 nM | COc1cnc(OCCOc2nc(C3CC3)nc(NS(=O)(=O)NCc3ccccc3)c2Oc2ccccc2OC)nc1 [Example 89] |
| 433 nM | 7.4 nM | COc1ccccc1Oc1c(NS(=O)(=O)NCc2ccccc2)nc(C2CC2)nc1OCCOc1ncc(SC)cn1 [Example 90] |
| 79 nM | 2.5 nM | COc1ccccc1Oc1c(NS(=O)(=O)NCc2ccccc2)nc(C2CC2)nc1OCCOC(=O)Nc1ccccn1 [Example 91] |
| 92 nM | 1.55 nM | COc1ccccc1Oc1c(NS(=O)(=O)NCc2ccccc2)ncnc1OCCOc1ncc(SC)cn1 [Example 97] |
| 159 nM | 2.1 nM | COc1ccccc1Oc1c(NS(=O)(=O)NCc2ccccc2)ncnc1OCCOC(=O)Nc1ccccn1 [Example 98] |
| 335 nM | 1.24 nM | COc1cnc(OCCOc2ncnc(NS(=O)(=O)NCc3ccccc3)c2-c2ccc(Br)cc2)nc1 [Example 101] |
| 203 nM | 0.69 nM | CCNS(=O)(=O)Nc1ncnc(OCCOc2ncc(SC)cn2)c1-c1ccc(Br)cc1 [Example 105] |
| 96 nM | 0.25 nM | O=S(=O)(NCC1CC1)Nc1ncnc(OCCOc2ncc(Br)cn2)c1-c1ccc(Br)cc1 [Example 107] |
| 56 nM | 0.28 nM | CSc1cnc(OCCOc2ncnc(NS(=O)(=O)NCC3CC3)c2-c2ccc(Br)cc2)nc1 [Example 108] |
| > 1000 nM | 1.94 nM | O=S(=O)(NCc1ccccc1)Nc1nc(-c2ccncc2)nc(OCCOc2ncc(Br)cn2)c1-c1ccc(Cl)cc1 [Example 109] |
| > 1000 nM | 2.3 nM | CSc1cnc(OCCOc2nc(-c3ccncc3)nc(NS(=O)(=O)NCc3ccccc3)c2-c2ccc(Cl)cc2)nc1 [Example 110] |
| 3750 nM | 12.3 nM | COc1cnc(OCCOc2nc(-c3ccncc3)nc(NS(=O)(=O)NCc3ccccc3)c2-c2ccc(Cl)cc2)nc1 [Example 111] |
| 257 nM | 0.52 nM | O=S(=O)(NCC1CC1)Nc1ncnc(OCCOc2ncc(Br)cn2)c1-c1ccc(Cl)cc1 [Example 112] |
| 581 nM | 4.26 nM | COc1cnc(OCCOc2ncnc(NS(=O)(=O)NCC3CC3)c2-c2ccc(Cl)cc2)nc1 [Example 113] |
| > 1000 nM | 8.3 nM | O=S(=O)(Nc1ncnc(OCCOc2ncc(Br)cn2)c1-c1ccc(Cl)cc1)NC1CC1 [Example 114] |
| > 1000 nM | 2.2 nM | CCNS(=O)(=O)Nc1ncnc(OCCOc2ncc(Br)cn2)c1-c1ccc(Cl)cc1 [Example 115] |
| 567 nM | 1.3 nM | CCNS(=O)(=O)Nc1ncnc(OCCOc2ncc(SC)cn2)c1-c1ccc(Cl)cc1 [Example 116] |
| 518 nM | 0.45 nM | CCCCNS(=O)(=O)Nc1ncnc(OCCOc2ncc(Br)cn2)c1-c1ccc(Cl)cc1 [Example 117] |
| 611 nM | 0.34 nM | CCCCNS(=O)(=O)Nc1ncnc(OCCOc2ncc(SC)cn2)c1-c1ccc(Cl)cc1 [Example 118] |
| 124 nM | 2.9 nM | COc1ccccc1Oc1c(NS(=O)(=O)NCC2CC2)nc(-c2ccncc2)nc1OCCOc1ncc(Br)cn1 [Example 123] |
| 102 nM | 7.3 nM | COc1cnc(OCCOc2nc(-c3ccncc3)nc(NS(=O)(=O)NCC3CC3)c2Oc2ccccc2OC)nc1 [Example 124] |
| 87 nM | 7.3 nM | COc1cnc(OCCOc2nc(-c3ncccn3)nc(NS(=O)(=O)NCC3CC3)c2Oc2ccccc2OC)nc1 [Example 127] |
| 347 nM | 3.7 nM | COc1ccccc1Oc1c(NS(=O)(=O)NCC2CCCCC2)nc(-c2ccncc2)nc1OCCOc1ncc(Br)cn1 [Example 130] |
| 233 nM | 3.2 nM | COc1cnc(OCCOc2nc(-c3ccncc3)nc(NS(=O)(=O)NCC3CCCCC3)c2Oc2ccccc2OC)nc1 [Example 131] |

| IC50 [1] | IC50 [2] | Structure (SMILES) |
| --- | --- | --- |
| 187 nM | 2.4 nM | COc1cnc(OCCOc2nc(-c3ncccn3)nc(NS(=O)(=O)NCC3CCCCC3)c2Oc2ccccc2OC)nc1 [Example 134] |
| 108 nM | 2.6 nM | COc1ccccc1Oc1c(NS(=O)(=O)NCc2ccc(F)cc2)nc(-c2ncccn2)nc1OCCOc1ncc(Br)cn1 [Example 142] |
| 35 nM | 3.1 nM | COc1cnc(OCCOc2nc(-c3ncccn3)nc(NS(=O)(=O)NCc3ccc(F)cc3)c2Oc2ccccc2OC)nc1 [Example 143] |
| > 1000 nM | 1.64 nM | Cc1ccc(-c2c(NS(=O)(=O)NCc3ccc4c(c3)OCO4)ncnc2OCCOc2ncc(Br)cn2)cc1 [Example 145] |
| 514 nM | 5 nM | COc1cnc(OCCOc2ncnc(NS(=O)(=O)NCc3ccc4c(c3)OCO4)c2-c2ccc(C)cc2)nc1 [Example 146] |
| 408 nM | 1.2 nM | CSc1cnc(OCCOc2ncnc(NS(=O)(=O)NCc3ccc4c(c3)OCO4)c2-c2ccc(C)cc2)nc1 [Example 147] |
| 1320 nM | 15 nM | COc1ccccc1Oc1c(NS(=O)(=O)NCc2ccc3c(c2)OCO3)nc(-c2ccncc2)nc1OC [Example 149] |
| 57 nM | 0.77 nM | COc1ccc(Cl)c(Oc2c(NS(=O)(=O)NCc3ccc4c(c3)OCO4)ncnc2OCCOc2ncc(Br)cn2)c1 [Example 151] |
| 79 nM | 1.1 nM | COc1cnc(OCCOc2ncnc(NS(=O)(=O)NCc3ccc4c(c3)OCO4)c2Oc2cc(OC)ccc2Cl)nc1 [Example 152] |
| 173 nM | 5.8 nM | COc1ccccc1Oc1c(NS(=O)(=O)NCc2ccccn2)nc(-c2ncccn2)nc1OCCOc1ncc(SC)cn1 [Example 155] |
| 409 nM | 18 nM | COc1ccccc1Oc1c(NS(=O)(=O)NCc2ccccn2)nc(-c2ncccn2)nc1OCCOc1ncc(Br)cn1 [Example 156] |
| 954 nM | 42.2 nM | COc1ccccc1Oc1c(NS(=O)(=O)NCc2ccccn2)nc(-c2ncccn2)nc1OCCOc1nccs1 [Example 157] |
| 80 nM | 10 nM | COc1ccccc1Oc1c(NS(=O)(=O)NCc2ccccn2)nc(-c2ccncc2)nc1OCCOc1ncc(SC)cn1 [Example 158] |
| 3220 nM | 11 nM | C#CCOc1nc(-c2ccncc2)nc(NS(=O)(=O)NCc2ccc(OC)cc2)c1Oc1ccccc1OC [Example 160] |
| 80 nM | 0.44 nM | COc1ccc(CNS(=O)(=O)Nc2ncnc(OCCOc3ncc(Br)cn3)c2Oc2cc(OC)ccc2Cl)cc1 [Example 163] |
| 81 nM | 1 nM | COc1ccc(CNS(=O)(=O)Nc2ncnc(OCCOc3ncc(OC)cn3)c2Oc2cc(OC)ccc2Cl)cc1 [Example 164] |
| 3 nM | 1 nM | COc1ccc(CNS(=O)(=O)Nc2nc(-c3ncccn3)nc(OCCOc3ncc(Br)cn3)c2Oc2ccccc2OC)cc1OC [Example 166] |
| 6.4 nM | 5.2 nM | COc1ccc(CNS(=O)(=O)Nc2nc(-c3ncccn3)nc(OCCOc3ncccn3)c2Oc2ccccc2OC)cc1OC [Example 167] |
| 1.6 nM | 2.7 nM | COc1ccc(CNS(=O)(=O)Nc2nc(-c3ncccn3)nc(OCCOC(=O)Nc3ccccc3)c2Oc2ccccc2OC)cc1OC [Example 168] |
| 42 nM | 1.7 nM | COc1cccc(CNS(=O)(=O)Nc2nc(-c3ncccn3)nc(OCCOc3ncc(Br)cn3)c2Oc2ccccc2OC)c1 [Example 170] |
| 61 nM | 11 nM | COc1cccc(CNS(=O)(=O)Nc2nc(-c3ncccn3)nc(OCCOc3ncccn3)c2Oc2ccccc2OC)c1 [Example 171] |
| 16 nM | 3 nM | COc1cccc(CNS(=O)(=O)Nc2nc(-c3ncccn3)nc(OCCOC(=O)Nc3ccccc3)c2Oc2ccccc2OC)c1 [Example 172] |
| 93 nM | 3.7 nM | COc1ccccc1CNS(=O)(=O)Nc1nc(-c2ncccn2)nc(OCCOc2ncc(Br)cn2)c1Oc1ccccc1OC [Example 174] |
| 62 nM | 22 nM | COc1ccccc1CNS(=O)(=O)Nc1nc(-c2ncccn2)nc(OCCOc2ncccn2)c1Oc1ccccc1OC [Example 175] |
| 22 nM | 2.5 nM | COc1ccccc1CNS(=O)(=O)Nc1nc(-c2ncccn2)nc(OCCOC(=O)Nc2ccccc2)c1Oc1ccccc1OC [Example 176] |
| 224 nM | 14.3 nM | COc1ccccc1Oc1c(NS(=O)(=O)NCCc2ccccc2)nc(-c2ccncc2)nc1OCCOC(=O)Nc1ccccc1 [Example 181] |
